Data: the SangsterLogP compilation

What was measured:
[1] = method code SF-AS, from DOI: 10.1002/ps.2780140302; details: pH 5.0
[2] = not given; remark: listed apart in the source
[3] = not given; remark: listed apart in the source
[4] = method code SF, from DOI: 10.1002/jps.2600830715, PMID: 7965680
[5] = method code RP-HPLC, from DOI: 10.1021/jm970292n, PMID: 9371243
[6] = method code SF-RC, from DOI: 10.1016/j.bmcl.2015.05.048, PMID: 26073008; details: pH 7.4
[7] = method code SF-AS, from DOI: 10.1016/s0021-9673(00)91570-x; details: pH 3.4
[8] = method code SF, from DOI: 10.1016/j.ejmech.2012.08.015, PMID: 22960698
[9] = method code SF-HPLC, from DOI: 10.1016/j.jpba.2011.06.023, PMID: 21782368; details: pH 7.4
[10] = method code SF-AS, from Zsuzsa, H.; Nora, K. (1979). Study on the partition coefficient of acetanilides. Nehezvegyp. Kut. Intez. Kozl., 8, 139-146.
[11] = not given; remark: listed apart in the source
[12] = method code SF-RC, from DOI: 10.1016/j.ejmech.2014.07.070, PMID: 25063945; details: pH 7.4
[13] = method code SF-RC, from DOI: 10.1021/jm201482p, PMID: 22339166; details: pH 6.8
[14] = method code SF-AS, from DOI: 10.1039/p29900001191; details: pH 12.0
[15] = method code SF-AS, from DOI: 10.1002/qsar.19830020405; details: pH 2.0
[16] = method code SF, from DOI: 10.1021/jm00167a034, PMID: 2329572; details: pH 7.4
[17] = method code SF-RC, from DOI: 10.1021/acs.jmedchem.6b00849, PMID: 27690428; details: pH 7.4
[18] = method code SF-HPLC, from DOI: 10.1016/0378-5173(86)90195-x; details: pH 7.4
[19] = not given; remark: listed apart in the source
[20] = method code SF, from Wang, L.; Li, H.; Wang, X.; Zhang, Z. (1993). Determination of aqueous solubilities and partition coefficients of substitutive ethylketone congeners by generator column. Huanjing Huaxue, 12(2)151-154.
[21] = method code SF-RC, from DOI: 10.1016/j.bmc.2015.06.036, PMID: 26145817; details: pH 7.4
[22] = not given; remark: listed apart in the source
[23] = pH 7.4
[24] = method code SF-AS, from DOI: 10.1016/s0022-3565(25)32601-7, PMID: 7194909
[25] = method code SF-HPLC, from PMID: 1854437; details: pH 7.4
[26] = not given; remark: listed apart in the source
[27] = not given; remark: listed apart in the source
[28] = method code SF-AS, from DOI: 10.1135/cccc19831077; details: pH 3.5
[29] = method code SF-RC, from DOI: 10.1021/jf60186a044, PMID: 4688915
[30] = method code SF, from DOI: 10.1016/j.ijpharm.2011.07.043, PMID: 21839822; details: pH 7.4
[31] = method code SF-AS, from DOI: 10.1016/s0014-827x(98)00024-x, PMID: 9679281
[32] = method code SF-RC, from DOI: 10.1021/jm00238a003, PMID: 1120999; details: pH 7.0

Question: For OC(c1ccccc1)(c1cncnc1)c1ccc(Cl)cc1Cl (stereo not given), which logD [1] is on record?
Answer: 2.56

Question: For CC(=O)Oc1ccc(C(O)(Cn2ccnc2)c2ccc(-c3ccncc3)cc2)cc1 (stereo not given), which logP is on record?
Answer: 2.61

Question: For CN(SN(C)C(=O)Oc1cccc2ccccc12)C(=O)Oc1ccc2c(c1)OCO2, which logP [2] is on record?
Answer: 2.83

Question: Which logP [3] does the source give for Nc1ccc(S(=O)(=O)Nc2ccnn2-c2ccccc2)cc1 here?
Answer: 1.35

Question: With CC1(C)CC(NC(=O)CNC(=O)N(CCCl)N=O)CC(C)(C)N1O as the compound, how does the logP [4] read?
Answer: 1.23

Question: For COc1cccc2cc3cccc(OC)c3c(OC)c12, which logP [5] is on record?
Answer: 4.1

Question: Which logD [6] does the source give for O=c1cc(/C=C/c2ccc(O)cc2)oc2ccc(I)cc12 here?
Answer: 1.87

Question: With COc1cc(CC(=O)O)ccc1OCCCC(C)C as the compound, how does the logD [7] read?
Answer: 3.3

Question: Which logP [8] does the source give for O=C(CC1OC(=O)c2ccccc21)c1ccccc1 (stereo not given) here?
Answer: 2.96

Question: For CCOC(=O)CC(CNC(=O)OC(C)(C)C)c1ccc(Cl)cc1 (stereo not given), which logD [9] is on record?
Answer: 2

Question: Which logP [10] does the source give for O=C(CN(C(=O)C(Cl)Cl)c1ccccc1)Nc1ccccc1 here?
Answer: 2.96

Question: For OC(c1ccc(F)cc1)(c1cncnc1)c1ccccc1Cl (stereo not given), which logD [1] is on record?
Answer: 2.2

Question: With O=P(Oc1ccccc1)(Oc1ccccc1)Oc1ccccc1 as the compound, how does the logP [11] read?
Answer: 3.9

Question: Which logD [12] does the source give for CN(C)c1ccc(/C=C/C(=O)/C=C/c2ccc(F)cc2)cc1 here?
Answer: 3.89

Question: For O=c1[nH]c(=O)n([C@H]2C[C@H](O)[C@@H](CO[P@]3(=O)OCc4ccccc4O3)O2)cc1I, which logD [13] is on record?
Answer: 0.65

Question: For N#Cc1cc(-c2ccccc2)nnc1NCCN1CCOCC1, which logD [14] is on record?
Answer: 1.89

Question: Which logD [15] does the source give for Cc1ccc(C(=O)c2ccc(CC(=O)O)n2C)cc1 here?
Answer: 2.79

Question: With Cc1cn([C@H]2C[C@H](N=[N+]=[N-])[C@@H](COC(=O)c3cccnc3)O2)c(=O)[nH]c1=O as the compound, how does the logD [16] read?
Answer: 0.2

Question: Which logD [16] does the source give for Cc1cn(C2CC(N=[N+]=[N-])C(COC(=O)C(N)Cc3ccc(O)cc3)O2)c(=O)[nH]c1=O (stereo not given) here?
Answer: -0.03

Question: With O=C1c2c(O)cc(O)cc2O[C@H](c2ccc(O)c(O)c2)[C@H]1O as the compound, how does the logP [3] read?
Answer: 1.4

Question: With N#Cc1ccc(N(Cc2ccc(I)cc2)n2ccnc2)cc1 as the compound, how does the logD [17] read?
Answer: 1.59

Question: With CCCC(=O)OCOc1ccccc1C(=O)NCN1CCOCC1 as the compound, how does the logD [18] read?
Answer: 1.34

Question: For CNc1ccc(/C=C/C(=O)/C=C/c2ccc(F)cc2)cc1, which logD [12] is on record?
Answer: 2.69

Question: Which logP [4] does the source give for CC(NC(=O)N(CCCl)N=O)C(=O)NC1CC(C)(C)N(O)C(C)(C)C1 (stereo not given) here?
Answer: 1.28

Question: For CC(=O)OCOc1ccccc1C(=O)NCN1CCOCC1, which logD [18] is on record?
Answer: 0.27

Question: Which logP [19] does the source give for Cc1nonc1-c1ccc(OCCCc2c[nH]cn2)cc1 here?
Answer: 2.92

Question: With Cc1ccc(SCC(=O)c2ccc(C)cc2)cc1 as the compound, how does the logP [20] read?
Answer: 3.19

Question: For CC(C(=O)O)c1cccc(C(=O)c2ccccc2)c1 (stereo not given), which logD [15] is on record?
Answer: 3.12

Question: With COc1ccc(C(=O)CC2OC(=O)c3ccccc32)cc1OC (stereo not given) as the compound, how does the logP [8] read?
Answer: 2.61

Question: With Cc1cc(N(C)CCCCF)n2nc(C)c(-c3ccc(Cl)cc3Cl)c2n1 as the compound, how does the logD [21] read?
Answer: 2.75

Question: For CC(=O)N(CC(=O)Nc1ccccc1)c1ccccc1, which logP [10] is on record?
Answer: 2.01

Question: For Cc1cc(N(C)CCOCCF)n2nc(C)c(-c3ccc(Cl)cc3Cl)c2n1, which logD [21] is on record?
Answer: 2.3

Question: For Cc1ccc(OP(=O)(Oc2ccccc2)Oc2ccccc2)cc1, which logP [11] is on record?
Answer: 4.4

Question: Which logP [22] does the source give for Cc1noc(C)c1NC1=CC(=O)C(=O)c2ccccc21 here?
Answer: 1.51

Question: Which logD [23] does the source give for Cc1ccc(C)n1Nc1ccc(N2C[C@@H](C)O[C@@H](C)C2)nn1 here?
Answer: 2.59

Question: Which logP [24] does the source give for OC1(c2ccc(Cl)cc2)c2ccccc2C2=NCCCN21 (stereo not given) here?
Answer: 1.41

Question: Which logD [25] does the source give for CCCC(=O)OCn1cnc(CSCCNC(=NC#N)NC)c1C here?
Answer: 1.6

Question: Which logP [24] does the source give for OC1(c2ccc(Cl)cc2)c2ccccc2C2=NCCCCN21 (stereo not given) here?
Answer: 1.15

Question: For O=C(O)Cc1ccc(OCc2ccccc2)cc1, which logD [7] is on record?
Answer: 2.85

Question: With CC(C)CC(O)C(O)C(CC1CCCCCC1)NC(=O)CN (stereo not given) as the compound, how does the logP [26] read?
Answer: 1.52

Question: For c1ccc(Cc2cc(-c3ccccc3)nnc2NCCN2CCOCC2)cc1, which logD [14] is on record?
Answer: 3.65

Question: For N#Cc1ccc(OCC2CCN(CCCF)CC2)cc1, which logP [27] is on record?
Answer: 2.8

Question: For N#Cc1ccc(N(Cc2ccc(I)cc2)c2cncnc2)cc1, which logD [17] is on record?
Answer: 2.16

Question: With COc1ccc(/C=C/c2cc(=O)c3cc(I)ccc3o2)cc1 as the compound, how does the logD [6] read?
Answer: 2.15

Question: With O=C1c2c(O)cccc2C(c2ccccc2)c2cccc(O)c21 as the compound, how does the logP [5] read?
Answer: 3.81

Question: Which logD [28] does the source give for COc1cc(CC(=O)O)ccc1OCc1ccccc1 here?
Answer: 2.59

Question: For O=C(O)Cc1ccc(OCCc2ccccc2)c(Cl)c1, which logD [28] is on record?
Answer: 3.53

Question: With Cc1ccc(C(c2ccc(Cl)cc2)C(Cl)(Cl)Cl)cc1 (stereo not given) as the compound, how does the logP [29] read?
Answer: 4.47

Question: With CC(n1ccnc1)C(O)(c1ccc(F)cc1)c1ccc(F)cc1 (stereo not given) as the compound, how does the logP read?
Answer: 3.13

Question: Which logD [9] does the source give for COC(=O)CC(CNC(=O)OC(C)(C)C)c1ccc(Cl)cc1 (stereo not given) here?
Answer: 1.5

Question: Which logD [13] does the source give for Cc1cccc2c1O[P@](=O)(OC[C@H]1O[C@@H](n3cc(I)c(=O)[nH]c3=O)C[C@@H]1O)OC2 here?
Answer: 0.85

Question: With CCCCCCCCCCCCNC(=O)c1ccccc1O as the compound, how does the logD [30] read?
Answer: 5.37

Question: With c1ccc(Nc2nnc(Cn3ccc4ccccc43)s2)cc1 as the compound, how does the logP [31] read?
Answer: 3.73

Question: For Nc1ccn([C@@H]2O[C@H](COC(=O)c3ccccc3)[C@@H](O)[C@@H]2O)c(=O)n1, which logD [32] is on record?
Answer: 0.5

Question: For CCCCCCCCCCNC(=O)c1ccccc1O, which logD [30] is on record?
Answer: 4.53

Question: With CC(C)CC(O)C(O)C(N)NC1CCCCC1 (stereo not given) as the compound, how does the logP [26] read?
Answer: 1.86

Question: For NC(=O)c1c(-c2ccc(OCCCc3c[nH]cn3)cc2)no[n+]1[O-], which logP [19] is on record?
Answer: 1.57

Question: For COc1ccc(C(=O)CSc2ccccc2)cc1, which logP [20] is on record?
Answer: 2.2

Question: For Cc1ccc(C(c2ccc(C)cc2)C(Cl)(Cl)Cl)cc1, which logP [29] is on record?
Answer: 3.57

Question: For N#Cc1ccc(OCC2CCN(CCF)CC2)cc1, which logP [27] is on record?
Answer: 2.8

Question: For Cc1[nH]c2ccccc2c1Cc1n[nH]c(=S)n1-c1cccc2ccccc12, which logP [31] is on record?
Answer: 3.02

Question: With CNC(=NC#N)NCCSCc1ncn(COC(=O)C(C)(C)C)c1C as the compound, how does the logD [25] read?
Answer: 1.81

Question: Which logD [32] does the source give for Nc1ccn([C@@H]2O[C@H](COC(=O)c3cccnc3)[C@@H](O)[C@@H]2O)c(=O)n1 here?
Answer: -0.6

Question: For CCCCCc1onc(C)c1N=C1C=C(O)C(=O)c2ccccc21, which logP [22] is on record?
Answer: 3.25

Question: With Cc1ccc(C)n1NC(=O)Cc1ccc(N2CCOCC2)nn1 as the compound, how does the logD [23] read?
Answer: 1.64
